Reference: patent US20080031912A1, “METHOD FOR CONTROLLING CELL MIGRATION ON A SURFACE” (THE REGENTS OF THE UNIVERSITY OF CALIFORNIA, priority 2006, published 2008)

Tests used:
NIH 3T3 cells [1] = experiment: Cell spreading on coated tissue culture dishes (time-lapse microscopy); format: cell-based; conditions: surface coated with 1 μg/cm2; observed over 8 hours (3, 6, 8 hours post-plating)
Description: (§1) Cell Culture. NIH 3T3 cells were cultured in DMEM supplemented with 10% calf serum, 1% sodium pyruvate, 1% L-glutamine, 1% penicillin/streptomycin, and maintained in a humidified 5% CO2/95% air incubator at 37° C. Wildtype and pik3R2^−/− MEF cell lines were maintained in DMEM supplemented with 15% FBS and 1% penicillin/streptomycin, and maintained in a humidified 5% CO2, 95% air incubator at 37° C.
(§2) Imaging. NIH 3T3 cells were maintained in complete media (described above) for all experiments. Imaging was done on a Nikon Diaphot 300 inverted microscope with a Hamamatsu Orca ER digital camera controlled by IP lab software (Scanalytics). Images were captured under 10× and 20× phase-contrast microscopy. The cells were under temperature and gas control throughout the duration of the experiments (5% CO2, 95% air, 37° C.). MEF cells were maintained in complete media for all experiments. Imaging was done on a Nikon Diaphot 300 inverted microscope with a Hamamatsu Orca ER digital camera controlled by IP lab, or Metamorph imaging software. Images were captured under 20× and 40× differential interference microscopy (DIC), or fluorescence microscopy. The cells were under temperature and gas control throughout the duration of live cell imaging experiments (5% CO2, 95% air, 37° C.). […]

NIH 3T3 cells [2] = experiment: Cell migration onto coated half of tissue culture dish; format: cell-based; conditions: right half of dish coated with 1 μg/cm^2 of each protein; cells seeded on uncoated half, 7 days
Description: as §1, §2

Substance: fibronectin [FN]
- cell spreading on coated surface (NIH 3T3 cells [1]): spread efficiently
- cell migration onto coated surface (NIH 3T3 cells [2]): robust migration
